Test results published in patent US11453647B2, “Benzimidazole derivatives as adenosine receptor antagonists” (Merck Patent GmbH, priority 2017, dated 2022).
Values belong to the compound of their own block, whether it stands above or below them.

What was measured:
Format in all cases: cell-based
[1] = target: T1, human A1 receptor (Homo sapiens, UniProt P30542); assay: functional cAMP (HTRF) assay, recombinant CHO cells expressing human A1 receptor, forskolin, agonist CPA
T1 construct: expressed in transfected cells; host or cells: CHO
T1 sequence (P30542 1-326): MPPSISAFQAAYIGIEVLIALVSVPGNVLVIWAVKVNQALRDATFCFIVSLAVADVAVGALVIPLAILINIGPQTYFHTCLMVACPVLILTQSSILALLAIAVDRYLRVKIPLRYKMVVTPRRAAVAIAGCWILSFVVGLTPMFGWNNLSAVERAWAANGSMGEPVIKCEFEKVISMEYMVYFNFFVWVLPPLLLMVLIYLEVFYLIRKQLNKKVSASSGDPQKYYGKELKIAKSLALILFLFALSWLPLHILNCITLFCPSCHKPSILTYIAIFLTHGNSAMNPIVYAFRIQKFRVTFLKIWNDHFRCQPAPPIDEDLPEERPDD
Experimental: (§1) The functional activities of human A2A, A2B, A1 and A3 receptors were determined by quantification of cAMP, being the second messenger for adenosine receptors.
(§2) For human A1 and A3 receptors, recombinant CHO cells, expressing either A1 or A3-receptor, were used. As both receptors couple to Gi proteins, the assay protocol was adapted:
(§3) Cells were seeded into 384-well plates, forskolin, test compounds and agonists (CPA for A1- and IB-MECA for A3-receptor) were added. After 30 min incubation, HTRF reagents (cAMP dynamic 2, Cis Bio) were added and the cellular cAMP levels were determined using the ENVISION (Perkin Elmer) plate reader. Obtained raw data were normalized against the inhibitor control and the neural control (DMSO) and the normalized data were fitted using GeneData software.

[2] = target: T2, human A2A receptor (Homo sapiens, UniProt P29274); assay: functional cAMP (HTRF) assay, recombinant HEK293 cells expressing human A2A receptor, agonist NECA
T2 construct: expressed in transfected cells; host or cells: HEK293
T2 sequence (P29274 whole entry): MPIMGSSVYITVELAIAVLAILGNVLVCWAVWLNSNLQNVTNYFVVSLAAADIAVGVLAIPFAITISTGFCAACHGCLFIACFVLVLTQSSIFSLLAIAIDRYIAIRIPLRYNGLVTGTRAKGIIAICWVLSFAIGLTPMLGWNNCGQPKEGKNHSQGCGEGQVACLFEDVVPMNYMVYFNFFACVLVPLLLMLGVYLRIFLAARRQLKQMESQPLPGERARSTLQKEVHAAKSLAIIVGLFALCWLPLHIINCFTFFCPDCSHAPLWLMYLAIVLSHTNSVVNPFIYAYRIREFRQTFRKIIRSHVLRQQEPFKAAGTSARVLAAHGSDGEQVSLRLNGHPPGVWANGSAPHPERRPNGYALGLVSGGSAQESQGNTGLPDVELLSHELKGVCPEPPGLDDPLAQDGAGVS

[3] = target: T3, A2B receptors (Homo sapiens, UniProt P29275); assay: functional cAMP (HTRF) assay, recombinant HEK293 cells expressing human A2B receptor, agonist NECA; design: expressed in transfected cells; host or cells: HEK293
T3 sequence (P29275 1-332): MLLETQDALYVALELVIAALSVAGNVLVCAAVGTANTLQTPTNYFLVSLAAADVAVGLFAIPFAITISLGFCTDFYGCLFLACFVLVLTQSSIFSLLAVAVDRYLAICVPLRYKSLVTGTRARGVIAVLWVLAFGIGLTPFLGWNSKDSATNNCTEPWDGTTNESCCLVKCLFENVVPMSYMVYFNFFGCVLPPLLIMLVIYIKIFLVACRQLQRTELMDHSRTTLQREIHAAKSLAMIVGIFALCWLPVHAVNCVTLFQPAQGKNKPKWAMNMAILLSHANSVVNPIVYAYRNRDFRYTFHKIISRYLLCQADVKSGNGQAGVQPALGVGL

[4] = target: T4, human A3 receptor (Homo sapiens, UniProt P0DMS8); assay: functional cAMP (HTRF) assay, recombinant CHO cells expressing human A3 receptor, forskolin, agonist IB-MECA
T4 construct: expressed in transfected cells; host or cells: CHO
T4 sequence (P0DMS8 1-318): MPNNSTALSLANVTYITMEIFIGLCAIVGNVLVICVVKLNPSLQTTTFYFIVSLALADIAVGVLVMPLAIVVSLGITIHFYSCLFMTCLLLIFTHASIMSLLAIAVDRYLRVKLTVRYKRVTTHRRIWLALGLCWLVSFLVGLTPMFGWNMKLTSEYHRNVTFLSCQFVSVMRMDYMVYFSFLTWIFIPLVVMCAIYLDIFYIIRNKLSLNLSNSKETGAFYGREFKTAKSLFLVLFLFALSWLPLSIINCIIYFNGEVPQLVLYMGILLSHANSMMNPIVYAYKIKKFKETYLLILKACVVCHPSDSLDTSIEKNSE
Experimental: as §1, §2, §3

Structure (SMILES): COc1cc(F)c(C2CCOCC2)c2nc(NC(=O)c3ccc(C(=O)N(C)C)cc3)[nH]c12 [compound 277, N4-[5-fluoro-7-methoxy-4-(oxan-4-yl)-1H-1,3-benzodiazol-2-yl]-N1,N1-dimethylbenzene-1,4-dicarboxamide]
IC50 [4]: > 1000 nM
IC50 [2]: < 100 nM
IC50 [3]: < 100 nM

Structure (SMILES): COc1ccc(-c2ccccc2)c2nc(NC(=O)c3ccc(CCl)cc3)[nH]c12 [compound 10, 4-Chloromethyl-N-(7-methoxy-4-phenyl-1H-benzoimidazol-2-yl)-benzamide]
IC50 [1]: > 1000 nM
IC50 [2]: < 10 nM
IC50 [3]: < 100 nM

Structure (SMILES): COc1ccc(-c2ccccc2)c2nc(NC(=O)N3CCC4(CCOCC4)C3)[nH]c12 [compound 310, N-(7-methoxy-4-phenyl-1H-1,3-benzodiazol-2-yl)-8-oxa-2-azaspiro[4.5]decane-2-carboxamide]
IC50 [4]: > 1000 nM
IC50 [2]: < 100 nM
IC50 [3]: < 100 nM

Structure (SMILES): COc1ccc(C2CCOCC2)c2nc(NC(=O)c3ccc(N4C(=O)CCC4=O)cc3)[nH]c12 [compound 250, 4-(2,5-dioxopyrrolidin-1-yl)-N-[7-methoxy-4-(oxan-4-yl)-1H-1,3-benzodiazol-2-yl]benzamide]
IC50 [4]: > 1000 nM
IC50 [2]: < 10 nM
IC50 [3]: < 100 nM

Structure (SMILES): COc1ccc(C2CCCCC2)c2nc(NC(=O)c3ccnc(N4CCOCC4)c3)[nH]c12 [compound 17, N-(4-Cyclohexyl-7-methoxy-1H-benzoimidazol-2-yl)-2-morpholin-4-yl-isonicotinamide]
IC50 [4]: < 1000 nM
IC50 [2]: < 10 nM
IC50 [3]: > 1000 nM

Structure (SMILES): COCCOc1cccc(-c2ccc(OC)c3nc(NC(=O)c4c[nH]cn4)[nH]c23)c1 [compound 267, N-{4-methoxy-7-[3-(2-methoxyethoxy)phenyl]-1H-1,3-benzodiazol-2-yl}-1H-imidazole-4-carboxamide]
IC50 [1]: < 1000 nM
IC50 [2]: < 10 nM
IC50 [3]: < 10 nM

Structure (SMILES): CCCN(C)C(=O)c1ccc(C(=O)Nc2nc3c(OC)ccc(-c4ccccc4)c3[nH]2)cc1 [compound 297, N4-(4-methoxy-7-phenyl-1H-1,3-benzodiazol-2-yl)-N1-methyl-N1-propylbenzene-1,4-dicarboxamide]
IC50 [4]: < 1000 nM
IC50 [2]: < 100 nM
IC50 [3]: < 100 nM

Structure (SMILES): COc1ccc(-c2ccccc2)c2[nH]c(NC(=O)c3ccc(C(=O)N4CCOCC4)cc3)nc12 [compound 298, N-(4-methoxy-7-phenyl-1H-1,3-benzodiazol-2-yl)-4-(morpholine-4-carbonyl)benzamide]
IC50 [4]: < 1000 nM
IC50 [2]: < 100 nM
IC50 [3]: < 10 nM

Structure (SMILES): COc1ccc(C2CCOCC2)c2nc(NC(=O)NCc3nccs3)[nH]c12 [compound 228, 3-[7-methoxy-4-(oxan-4-yl)-1H-1,3-benzodiazol-2-yl]-1-[(1,3-thiazol-2-yl)methyl]urea]
IC50 [1]: > 1000 nM
IC50 [2]: < 100 nM

Structure (SMILES): COc1ccc(C2CCOCC2)c2nc(NC(=O)c3cnc(C)s3)[nH]c12 [compound 227, N-[7-methoxy-4-(oxan-4-yl)-1H-1,3-benzodiazol-2-yl]-2-methyl-1,3-thiazole-5-carboxamide]
IC50 [1]: > 1000 nM
IC50 [2]: < 10 nM
IC50 [3]: < 100 nM

Structure (SMILES): COc1ccc(-c2ccccc2)c2nc(NC(=O)c3ccc(CN4CCCC4=O)cc3)[nH]c12 [compound 311, N-(7-methoxy-4-phenyl-1H-1,3-benzodiazol-2-yl)-4-[(2-oxopyrrolidin-1-yl)methyl]benzamide]
IC50 [4]: < 1000 nM
IC50 [2]: < 100 nM
IC50 [3]: < 10 nM

Structure (SMILES): COCCN(C)C(=O)c1ccc(C(=O)Nc2nc3c(OC)ccc(-c4ccccc4)c3[nH]2)cc1 [compound 295, N4-(4-methoxy-7-phenyl-1H-1,3-benzodiazol-2-yl)-N1-(2-methoxyethyl)-N1-methylbenzene-1,4-dicarboxamide]
IC50 [4]: < 1000 nM
IC50 [2]: < 100 nM
IC50 [3]: < 100 nM

More lines, now with the values ahead:

IC50 [1]: < 1000 nM
IC50 [2]: < 10 nM
IC50 [3]: < 10 nM
Structure (SMILES): COc1ccc(-c2ccccc2F)c2nc(NC(=O)c3cnn(C)c3)[nH]c12 [compound 243, N-[4-(2-fluorophenyl)-7-methoxy-1H-1,3-benzodiazol-2-yl]-1-methyl-1H-pyrazole-4-carboxamide]

IC50 [1]: < 1000 nM
IC50 [2]: < 10 nM
IC50 [3]: < 10 nM
Structure (SMILES): COc1ccc(-c2cccnc2)c2nc(NC(=O)c3cnn(C)c3)[nH]c12 [compound 260, N-[7-methoxy-4-(pyridin-3-yl)-1H-1,3-benzodiazol-2-yl]-1-methyl-1H-pyrazole-4-carboxamide]

IC50 [1]: < 1000 nM
IC50 [2]: < 10 nM
IC50 [3]: < 10 nM
Structure (SMILES): COc1ccc(-c2ccccc2)c2nc(NC(=O)c3cncs3)[nH]c12 [compound 256, N-(7-methoxy-4-phenyl-1H-1,3-benzodiazol-2-yl)-1,3-thiazole-5-carboxamide]

IC50 [4]: > 1000 nM
IC50 [2]: < 100 nM
IC50 [3]: < 1000 nM
Structure (SMILES): COc1ccc(-c2ccncc2)c2nc(NC(=O)c3ccc(CN(C)C)cc3)[nH]c12 [compound 89, 4-[(dimethylamino)methyl]-N-[7-methoxy-4-(pyridin-4-yl)-1H-1,3-benzodiazol-2-yl]benzamide]

IC50 [1]: > 1000 nM
IC50 [2]: < 100 nM
IC50 [3]: < 100 nM
Structure (SMILES): COc1ccc(-c2ccncc2)c2[nH]c(NC(=O)c3c[nH]cn3)nc12 [compound 266, N-[4-methoxy-7-(pyridin-4-yl)-1H-1,3-benzodiazol-2-yl]-1H-imidazole-4-carboxamide]

IC50 [4]: < 10 nM
IC50 [2]: < 10 nM
IC50 [3]: < 100 nM
Structure (SMILES): COc1ccc(-c2ccccc2)c2nc(NC(=O)c3ccnc(Br)c3)[nH]c12 [compound 3, 2-Bromo-N-(7-methoxy-4-phenyl-1H-benzoimidazol-2-yl)-isonicotinamide]

IC50 [4]: < 10 nM
IC50 [2]: < 10 nM
IC50 [3]: < 100 nM
Structure (SMILES): COc1ccc(-c2ccccc2)c2nc(NC(=O)c3ccc(Br)nc3)[nH]c12 [compound 5, 6-Bromo-N-(7-methoxy-4-phenyl-1H-benzoimidazol-2-yl)-nicotinamide]

IC50 [4]: < 1000 nM
IC50 [2]: < 100 nM
IC50 [3]: < 100 nM
Structure (SMILES): COCCn1cc(C(=O)Nc2nc3c(-c4cccc5cc[nH]c45)ccc(OC)c3[nH]2)cn1 [compound 304, N-[4-(1H-indol-7-yl)-7-methoxy-1H-1,3-benzodiazol-2-yl]-1-(2-methoxyethyl)-1H-pyrazole-4-carboxamide]

IC50 [1]: < 1000 nM
IC50 [2]: < 100 nM
IC50 [3]: < 100 nM
Structure (SMILES): COc1ccc(-c2ccccc2)c2nc(NC(=O)c3cnc4n3CCCC4)[nH]c12 [compound 291, N-(7-methoxy-4-phenyl-1H-1,3-benzodiazol-2-yl)-5H,6H,7H,8H-imidazo[1,2-a]pyridine-3-carboxamide]

IC50 [1]: < 1000 nM
IC50 [2]: < 10 nM
IC50 [3]: < 10 nM
Structure (SMILES): COc1ccc(-c2ccccc2)c2nc(NC(=O)c3cnc(N)s3)[nH]c12 [compound 258, 2-amino-N-(7-methoxy-4-phenyl-1H-1,3-benzodiazol-2-yl)-1,3-thiazole-5-carboxamide]

IC50 [1]: < 1000 nM
IC50 [2]: < 10 nM
IC50 [3]: < 10 nM
Structure (SMILES): COc1ccc(-c2ccccc2)c2nc(NC(=O)c3cnc(C)s3)[nH]c12 [compound 257, N-(7-methoxy-4-phenyl-1H-1,3-benzodiazol-2-yl)-2-methyl-1,3-thiazole-5-carboxamide]

IC50 [1]: < 1000 nM
IC50 [2]: < 10 nM
IC50 [3]: < 10 nM
Structure (SMILES): COc1ccc(-c2cnn(C)c2)c2nc(NC(=O)c3cncs3)[nH]c12 [compound 219, N-[7-methoxy-4-(1-methyl-1H-pyrazol-4-yl)-1H-1,3-benzodiazol-2-yl]-1,3-thiazole-5-carboxamide]

IC50 [4]: < 1000 nM
IC50 [2]: < 10 nM
IC50 [3]: > 1000 nM
Structure (SMILES): COc1ccc(-c2cnn(C)c2)c2nc(NC(=O)c3ccnc(N4CCC(C)(O)C4)c3)[nH]c12 (centres unmarked) [compound 30, 2-(3-Hydroxy-3-methyl-pyrrolidin-1-yl)-N-[7-methoxy-4-(1-methyl-1H-pyrazol-4-yl)-1H-benzoimidazol-2-yl]-isonicotinamide]
